In patent US12213977B2, “Methods and compositions for treating melanoma” (THE REGENTS OF THE UNIVERSITY OF CALIFORNIA, priority 2017, dated 2025):
“Also recorded” adds a separate entry of the source. Where a SMILES comes first, the peptide text is derived from it. The star is where a group is joined. Cbz = O=C(OCc1ccccc1)*; CH2F = FC*

What was measured:
melanoma cell lines [1] = assay: CTRP pharmacogenomics drug sensitivity (AUC) across melanoma cell lines grouped by predicted differentiation subtype; format: cell-based; settings: for specificity of cell death-inducing compound for dedifferentiated melanoma cells: CTRP drug sensitivity profiles by subtype; for sensitivity (CTRP AUC) with increased dedifferentiation status: melanoma cell lines by predicted subtype, ANOVA P<0.01, irrespective of mutation status
Description: Through the prediction of subtypes from the CCLE and GDSC dataset, the inventors utilized the matching drug sensitivity profiles available from the pharmacogenomics-based Cancer Therapeutics Response Portal (CTRP) (Seashore-Ludlow et al., 2015). […] These compounds are erastin, (1S,3R)-RSL3, ML162, and M210 (FIG. 3B).
Dataset from Hoek et al of melanoma cell lines was obtained from GSE4845 and batch normalized using ComBat from the R sva package. Dataset from Mica et al for the melanocyte differentiation stage analysis was obtained from GSE45227. Gene expression profiles from samples representing the growth conditions for each specified stage of differentiation based on the original manuscript was used for analysis (day 0 embryonic stem cell, day 6 neural crest cell, day 11 melanoblast, and day 25 melanocyte). Primary melanocyte expression profiles (adult and neonatal) were used as control. Cell line expression profiles from the CCLE and GSDC databases were downloaded from the respective resource websites (http://www.broadinstitute.org/ccle; http://www.cancerrxgene.org/downloads). For each dataset, microarray probes were collapsed to gene symbol to the maximum average probe. To have a gene list compatible for all datasets used, the inventors took an intersection of genes from both RNASeq and microarray chip platforms, resulting in 10,545 genes.
Principal component analysis (PCA) was performed on mean centered data and all statistical analyses were performed in R (http://www.R-project.org/). Projections were calculated by matrix multiplication of the centered data to be projected using the rotation matrix determined from the PCA of the original source data. ANOVA p-values were determined using the non-parametric Kruskal-Wallis test at a significance threshold of 0.05. Reported p-values between pairs of subtypes were determined using Dunn post-hoc testing with multiple hypothesis correction using the Benjamini & Hochberg method. Heatmaps and figures were generated using pheatmap and ggplot2 R packages.

[2] = test system: M229, M397 and M249 melanoma cell lines; assay: Crystal violet staining (clonogenic) assays of long-term or cytokine combination treatment; format: cell-based, human
Experimental: (§1) Human melanoma cell lines of the M series were established from patient's biopsies under UCLA IRB approval #11-003254 as previously described (Søndergaard et al., 2010). Cells were cultured in RPMI 1640 with L-glutamine, 10% fetal bovine serum, and 1% penicillin, streptomycin and fungizone in a water-saturated incubator at 37° C. with 5% CO2. Cells were maintained and tested for mycoplasma, and regularly authenticated to their early passages using GenePrint® 10 System (Promega). Presence of mutations in the genes of interest were checked by OncoMap 3 or lontrone, and was confirmed by PCR and Sanger sequencing as previously described (Wong et al., 2014). Vemurafenib (PLX 4032), erastin, Z-VAD-FMK, R428 and piperlongumine were all purchased from Selleck Chemicals. Deferoxamine was obtained from Sigma-Aldrich. Staurosporine was obtained from Cayman Chemicals. Trolox was obtained from Acros Organics. Recombinant TNFα and IFNγ were both obtained from Peprotech. For the BRAFi timecourse study, M229 was treated with vemurafenib or DMSO for the indicated timepoints at twice the 50% inhibition concentration (500 nM). For the crystal violet assays, cells for seeded at low density in 6-well plates. The next day media was replaced by drug media and replenished every 2-3 days. Plates were stained with crystal violet solution (1% crystal violet, 10% methanol). Control wells were grown for 1 week and stained when 100% confluent.

[3] = test system: human melanoma cell lines of the M series; assay: Cell viability dose-response (CellTiter-Glo) across M series melanoma cell lines; format: cell-based
Experimental: as §1
All cell viability assays were assayed in 96-well format with 5000 cells seeded per well. Dose-response curves were assayed using CellTiter-Glo luminescent cell viability assay (Promega, G7572). For all other measurements of viable cells, a fluorescent resazurin-based (Sigma-Aldrich, R7017) assay (AlamarBlue) was used with fluorescence measured at 570/600 ex/em wavelength. Percentage cell viability is reported as a percentage relative to the negative control treatment. Measurement of dead cells per time was measured by incubating treated cells with the IncuCyte Cytotox Red Reagent and imaging with IncuCyte ZOOM Live-Cell Imaging System (Essen BioScience). […]

melanoma cell lines [4] = assay: Immunoblot of differentiation biomarkers (AXL, NGFR, MITF, MART-1) and pERK; format: cell-based, human; settings: IFNγ=100 U/mL, TNFα=1000 U/mL; M229, M397, M249
Experimental: Cells were lysed in modified RIPA buffer (50 mM Tris-HCl (pH 7.5), […], 10 mM β-glycerophosphate, 1% NP-40, 0.25% sodium deoxycholate, 10 mM sodium pyrophosphate, 30 mM sodium fluoride, 1 mM EDTA, 1 mM vanadate, 20 μg/ml aprotinin, 20 μg/ml leupeptin, and 1 mM phenylmethylsulfonyl fluoride). Whole-cell lysates were resolved by SDS-PAGE on TruPAGE 4-15% gradient gels (Sigma-Aldrich) and blotted onto nitrocellulose membranes. Membranes were blocked overnight with 5% milk and then incubated sequentially with primary and then IRDye-conjugated secondary antibodies (Li-Cor). Blots were imaged using the Odyssey Infrared Imaging System (Li-Cor). Primary antibodies used for Western blot analysis were MITF (DGG7V, CST), MART-1 (A103, SCBT), and AXL (C89E7, CST).

[5] = test system: undifferentiated signature cell lines M296, M410 M229R, and M238R; assay: Cell death and rescue assays (resazurin viability, IncuCyte Cytotox Red, trypan blue exclusion); format: cell-based, human
Experimental: All cell viability assays were assayed in 96-well format with 5000 cells seeded per well. Dose-response curves were assayed using CellTiter-Glo luminescent cell viability assay (Promega, G7572). For all other measurements of viable cells, a fluorescent resazurin-based (Sigma-Aldrich, R7017) assay (AlamarBlue) was used with fluorescence measured at 570/600 ex/em wavelength. Percentage cell viability is reported as a percentage relative to the negative control treatment. Measurement of dead cells per time was measured by incubating treated cells with the IncuCyte Cytotox Red Reagent and imaging with IncuCyte ZOOM Live-Cell Imaging System (Essen BioScience). Trypan blue exclusion was also used for cell death assays.

C=CC(=O)Nc1cc2c(Nc3ccc(F)c(Cl)c3)ncnc2cc1OCCCN1CCOCC1 [canertinib]
specificity of cell death-inducing compound for dedifferentiated melanoma cells (melanoma cell lines [1]): specificity for dedifferentiated melanoma cells

Cc1onc(C(=O)N2CCN(C(c3ccc(Cl)cc3)c3ccc(Cl)cc3)CC2)c1[N+](=O)[O-] [M210, ML210]
sensitivity (CTRP AUC) with increased dedifferentiation status (melanoma cell lines [1]): increased sensitivity

COc1ccc(C2C(C(=O)Nc3ccccc3)=C(C)N=c3sc(=Cc4cn(Cc5ccccc5)c5ccccc45)c(=O)n32)cc1 (centres unmarked) [BCL-LZH-4]
specificity of cell death-inducing compound for dedifferentiated melanoma cells (melanoma cell lines [1]): specificity for dedifferentiated melanoma cells

COc1ccc(N(C(=O)CCl)C(C(=O)NCCc2ccccc2)c2cccs2)cc1Cl (centres unmarked) [ML162]
sensitivity (CTRP AUC) with increased dedifferentiation status (melanoma cell lines [1]): increased sensitivity

O=C(c1cc(Cc2n[nH]c(=O)c3ccccc23)ccc1F)N1CCN(C(=O)C2CC2)CC1 [olaparib]
specificity of cell death-inducing compound for dedifferentiated melanoma cells (melanoma cell lines [1]): specificity for dedifferentiated melanoma cells

O=C(c1ccc(/C=C/c2n[nH]c3ccccc23)cc1)N1CCNCC1 [KW-2449]
specificity of cell death-inducing compound for dedifferentiated melanoma cells (melanoma cell lines [1]): specificity for dedifferentiated melanoma cells

COC(=O)c1ccc([C@H]2c3[nH]c4ccccc4c3C[C@H](C(=O)OC)N2C(=O)CCl)cc1 [RSL3, (1S,3R)-RSL3]
sensitivity upon IFNγ cytokine treatment ([2]; M249, higher doses (5 μM erastin, 500 nM RSL3)): increased sensitivity | long-term persisting cells ([2]; combined with vemurafenib (1 μM), 16-24 days, M229, M397, M249): substantial decrease | cell death compared to cytokine-only or untreated cells ([2]; in the presence of TNFα or IFNγ, 7 days): increased cell death | sensitivity in cell lines with vemurafenib-induced dedifferentiation ([3]; acquired resistance lines (P vs R) or long-term adaptive resistance (44 days)): increased sensitivity | sensitivity with dedifferentiation ([3]; across M series melanoma cell lines): increased sensitivity | sensitivity (CTRP AUC) with increased dedifferentiation status (melanoma cell lines [1]): increased sensitivity

Cc1c[nH]c(-c2cnc(NCCNc3ccc(C#N)cn3)nc2-c2ccc(Cl)cc2Cl)n1 [CHIR-99021]
specificity of cell death-inducing compound for dedifferentiated melanoma cells (melanoma cell lines [1]): specificity for dedifferentiated melanoma cells

TNFα
differentiation state (up-regulation of AXL, decreased MITF or MART-1) (melanoma cell lines [4]): induced de-differentiation

Cn1cc(-c2ccc3nnc(Sc4ccc5ncccc5c4)n3n2)cn1 [SGX-523]
specificity of cell death-inducing compound for dedifferentiated melanoma cells (melanoma cell lines [1]): specificity for dedifferentiated melanoma cells

COc1cc(Nc2ncc(F)c(Nc3ccc4c(n3)NC(=O)C(C)(C)O4)n2)cc(OC)c1OC [tamatinib]
specificity of cell death-inducing compound for dedifferentiated melanoma cells (melanoma cell lines [1]): specificity for dedifferentiated melanoma cells

NC(=O)Nc1cc(-c2cccc(F)c2)sc1C(=O)N[C@H]1CCCNC1 [AZD7762]
specificity of cell death-inducing compound for dedifferentiated melanoma cells (melanoma cell lines [1]): specificity for dedifferentiated melanoma cells

COC(=O)C[C@H](NC(=O)[C@H](C)NC(=O)[C@@H](NC(=O)OCc1ccccc1)C(C)C)C(=O)CF [Z-VAD-FMK] (Cbz-Val-Ala-Asp(OMe)-CH2F)
rescue of apoptosis induced by staurosporine ([5]; trypan blue, 24 hr 1 μM staurosporine, Z-VAD-FMK pre-treatment 1 hr, positive control): could rescue | rescue of death induced by erastin treatment ([5]; trypan blue, 24 hr 5 μM erastin, Z-VAD-FMK pre-treatment 1 hr): could not rescue

O=c1c2ccccc2nc(/C=C/c2cccnc2)n1Cc1ccccc1 [B02]
specificity of cell death-inducing compound for dedifferentiated melanoma cells (melanoma cell lines [1]): specificity for dedifferentiated melanoma cells

Cc1cnc(Nc2ccc(OCCN3CCCC3)cc2)nc1Nc1cccc(S(=O)(=O)NC(C)(C)C)c1 [TG-101348]
specificity of cell death-inducing compound for dedifferentiated melanoma cells (melanoma cell lines [1]): specificity for dedifferentiated melanoma cells

O=C1c2ccccc2-c2nc3nonc3nc21 [SMER-3]
specificity of cell death-inducing compound for dedifferentiated melanoma cells (melanoma cell lines [1]): specificity for dedifferentiated melanoma cells

COC(=O)c1ccc2c(c1)NC(=O)/C2=C(\Nc1ccc(N(C)C(=O)CN2CCN(C)CC2)cc1)c1ccccc1 [nintedanib]
specificity of cell death-inducing compound for dedifferentiated melanoma cells (melanoma cell lines [1]): specificity for dedifferentiated melanoma cells

CCc1c2c(nc3ccc(O)cc13)-c1cc3c(c(=O)n1C2)COC(=O)[C@]3(O)CC [SN-38]
specificity of cell death-inducing compound for dedifferentiated melanoma cells (melanoma cell lines [1]): specificity for dedifferentiated melanoma cells

C=C1[C@@H](C)[C@H]2[C@H](Cc3ccccc3)NC(=O)[C@]23OC(=O)/C=C/[C@H](O)CCC[C@@H](C)C/C=C/[C@H]3[C@@H]1O [cytochalasin B]
specificity of cell death-inducing compound for dedifferentiated melanoma cells (melanoma cell lines [1]): specificity for dedifferentiated melanoma cells

Cc1c(C)c2c(c(C)c1O)CCC(C)(C(=O)O)O2 (centres unmarked) [Trolox]
rescue of erastin-induced decrease in cell viability ([5]; 100 μM DFO or 150 μM Trolox with erastin): almost completely rescued

COc1cc2nccc(Oc3ccc(NC(=O)Nc4ccc(F)cc4F)c(F)c3)c2cc1OC [Ki8751]
specificity of cell death-inducing compound for dedifferentiated melanoma cells (melanoma cell lines [1]): specificity for dedifferentiated melanoma cells

CC(C)[C@H](O)C(=O)N[C@@H](C)C(=O)N[C@@H]1C(=O)N(C)CCc2ccccc21 [Semagacestat]
specificity of cell death-inducing compound for dedifferentiated melanoma cells (melanoma cell lines [1]): specificity for dedifferentiated melanoma cells

CC1(C)CC(=O)c2c(C(F)(F)F)nn(-c3ccc(C(N)=O)c(N[C@H]4CC[C@H](O)CC4)c3)c2C1 [SNX-2112]
specificity of cell death-inducing compound for dedifferentiated melanoma cells (melanoma cell lines [1]): specificity for dedifferentiated melanoma cells

COc1cc(/C=C/C(=O)N2CCC=CC2=O)cc(OC)c1OC [piperlongumine]
differentiation stage-associated trend in sensitivity ([3]; among subtypes and vemurafenib resistant lines): does not show any differentiation stage-associated trend; also recorded: no difference in sensitivity

AZD4547
specificity of cell death-inducing compound for dedifferentiated melanoma cells (melanoma cell lines [1]): specificity for dedifferentiated melanoma cells

COc1cc(N2CCC(N3CCN(C)CC3)CC2)ccc1Nc1ncc(Cl)c(Nc2ccccc2S(=O)(=O)C(C)C)n1 [NVP-TAE684]
specificity of cell death-inducing compound for dedifferentiated melanoma cells (melanoma cell lines [1]): specificity for dedifferentiated melanoma cells

Cc1c(N)nc([C@H](CC(N)=O)NC[C@H](N)C(N)=O)nc1C(=O)N[C@H](C(=O)N[C@H](C)[C@@H](O)[C@H](C)C(=O)N[C@H](C(=O)NCCc1nc(-c2nc(C(=O)NCCC[S+](C)C)cs2)cs1)[C@@H](C)O)[C@@H](O[C@@H]1O[C@@H](CO)[C@@H](O)[C@H](O)[C@@H]1O[C@H]1O[C@H](CO)[C@@H](O)[C@H](OC(N)=O)[C@@H]1O)c1c[nH]cn1.[Br-] [bleomycin A2]
specificity of cell death-inducing compound for dedifferentiated melanoma cells (melanoma cell lines [1]): specificity for dedifferentiated melanoma cells

ML334 diastereomer
specificity of cell death-inducing compound for dedifferentiated melanoma cells (melanoma cell lines [1]): specificity for dedifferentiated melanoma cells

B1: IFNγ: Recombinant IFNγ, cytokine secreted by T cells, obtained from Peprotech (protein, UniProt P01579 24-161, looked up)
Interferon gamma: QDPYVKEAENLKKYFNAGHSDVADNGTLFLGILKNWKEESDRKIMQSQIVSFYFKLFKNFKDDQSIQKSVETIKEDMNVKFFNSNKKKRDDFEKLTNYSVTDLNVQRKAIHELIQVMAELSPAAKTGKRKRSQMLFRG
differentiation state (up-regulation of AXL, decreased MITF or MART-1) (melanoma cell lines [4]): induced de-differentiation
